Test results reported in patent US10214542B2, “Modified macrocyclic compounds” (BAYER PHARMA AKTIENGESELLSCHAFT, priority 2015, dated 2019).

Tests used:
CDK2/CycE = target: T1, CDK2/CycE (Homo sapiens, UniProt P24941); experiment: CDK2/CycE high ATP kinase assay (TR-FRET, Method 2b); format: biochemical; conditions: 2 mM ATP
T1 construct: GST; purchased ProQinase GmbH (Freiburg, Germany); host or cells: insect cells (Sf9)
Description: 2b. CDK2/CycE High ATP Kinase Assay:
CDK2/CycE-inhibitory activity of compounds of the present invention at 2 mM adenosine-tri-phosphate (ATP) was quantified employing the CDK2/CycE TR-FRET (TR-FRET=Time Resolved Fluorescence Resonance Energy Transfer) assay as described in the following paragraphs.
Recombinant fusion proteins of GST and human CDK2 and of GST and human CycE, expressed in insect cells (Sf9) and purified by Glutathion-Sepharose affinity chromatography, were purchase from ProQinase GmbH (Freiburg, Germany). As substrate for the kinase reaction biotinylated peptide biotin-Ttds-YISPLKSPYKISEG (C-terminus in amid form) was used which can be purchased e.g. from the company JERINI peptide technologies (Berlin, Germany).
For the assay 50 nl of a 100 fold concentrated solution of the test compound in DMSO was pipetted into a black low volume 384 well microtiter plate (Greiner Bio-One, Frickenhausen, Germany), 2 μl of a solution of CDK2/CycE in aqueous assay buffer [50 mM Tris/HCl pH 8.0, 10 mM MgCl2, 1.0 mM dithiothreitol, 0.1 mM sodium ortho-vanadate, 0.01% (v/v) Nonidet-P40 (Sigma)] were added and the mixture was incubated for 15 min at 22° C. to allow pre-binding of the test compounds to the enzyme before the start of the kinase reaction. Then the kinase reaction was started by the addition of 3 μl of a solution ATP (3.33 mM=>final conc. in the 5 μl assay volume is 2 mM) and substrate (1.25 μM=>final conc. in the 5 μl assay volume is 0.75 μM) in assay buffer and the resulting mixture was incubated for a reaction time of 25 min at 22° C. The concentration of CDK2/CycE was adjusted depending of the activity of the enzyme lot and was chosen appropriate to have the assay in the linear range, typical concentrations were in the range of 15 ng/ml. The reaction was stopped by the addition of 5 μl of a solution of TR-FRET detection reagents (0.2 μM streptavidine-XL665 [Cisbio Bioassays, Codolet, France] and 1 nM anti-RB(pSer807/pSer811)-antibody from BD Pharmingen [#558389] and 1.2 nM LANCE EU-W1024 labeled anti-mouse IgG antibody [Perkin-Elmer, product no. AD0077, as an alternative a Terbium-cryptate-labeled anti-mouse IgG antibody from Cisbio Bioassays can be used]) in an aqueous EDTA-solution (100 mM EDTA, 0.2% (w/v) bovine serum albumin in 100 mM HEPES pH 7.5).
The resulting mixture was incubated 1 h at 22° C. to allow the formation of complex between the phosphorylated biotinylated peptide and the detection reagents. Subsequently the amount of phosphorylated substrate was evaluated by measurement of the resonance energy transfer from the Eu-chelate to the streptavidine-XL. Therefore, the fluorescence emissions at 620 nm and 665 nm after excitation at 350 nm were measured in a TR-FRET reader, e.g. a Rubystar (BMG Labtechnologies, Offenburg, Germany) or a Viewlux (Perkin-Elmer). The ratio of the emissions at 665 nm and at […] was taken as the measure for the amount of phosphorylated substrate. The data were normalised (enzyme reaction without inhibitor=0% inhibition, all other assay components but no enzym=100% inhibition).

HeLa cells = experiment: Proliferation assay, crystal violet (Method 3); format: cell-based, human; conditions: Homo sapiens, 96 h, 4 days, read-out: Inhibition of HeLa cell proliferation IC50
Description: (§1) Cultivated tumour cells (HeLa, human cervical tumour cells, ATCC CCL-2; NCI-H460, human non-small cell lung carcinoma cells, ATCC HTB-177; DU 145, hormone-independent human prostate carcinoma cells, ATCC HTB-81; HeLa-MaTu-ADR, multidrug-resistant human cervical carcinoma cells, EPO-GmbH Berlin; Caco-2, human colorectal carcinoma cells, ATCC HTB-37; B16F10, mouse melanoma cells, ATCC CRL-6475) were plated at a density of 5,000 cells/well (DU145, HeLa-MaTu-ADR), 3,000 cells/well (NCI-H460, HeLa), 1,500 cells/well (Caco-2), or 1,000 cells/well (B16F10) in a 96-well multititer plate in 200 μL of their respective growth medium supplemented 10% fetal calf serum. After 24 hours, the cells of one plate (zero-point plate) were stained with crystal violet (see below), while the medium of the other plates was supplemented with the test substances in various concentrations (0 μM, as well as in the range of 0.0001-10 μM; the final concentration of the solvent dimethyl sulfoxide was adjusted to 0.1%) using a Hewlett-Packard HP D300 Digital Dispenser. The cells were incubated for 4 days in the presence of test substances. Cell proliferation was determined by staining the cells with crystal violet: the cells were fixed by adding 20 μl/measuring point of an 11% glutaric aldehyde solution for 15 minutes at room temperature. After three washing cycles of the fixed cells with water, the plates were dried at room temperature. The cells were stained by adding 100 μl/measuring point of a 0.1% crystal violet solution (pH 3.0). After three washing cycles of the stained cells with water, the plates were dried at room temperature. The dye was dissolved by adding 100 μl/measuring point of a 10% acetic acid solution. The extinction was determined by photometry at a wavelength of 595 nm. The change of cell number, in percent, was calculated by normalization of the measured values to the extinction values of the zero-point plate (=0%) and the extinction of the untreated (0 μm) cells (=100%). The IC50 values (inhibitory concentration at 50% of maximal effect) were determined by means of a 4 parameter fit.

B16F10 cells = experiment: Proliferation assay, crystal violet (Method 3); format: cell-based; conditions: Mus musculus, B16-F10, 96 h; B16F10, 4 days; read-out: Inhibition of B16F10 cell proliferation IC50
Description: as §1

Caco-2 cells = experiment: Proliferation assay, crystal violet (Method 3); format: cell-based; conditions: Homo sapiens, 96 h; Caco-2, 4 days; read-out: Inhibition of Caco-2 cell proliferation IC50
Description: as §1

DU145 cells = experiment: Proliferation assay, crystal violet (Method 3); format: cell-based; conditions: Homo sapiens, DU-145, 96 h; DU145, 4 days; read-out: Inhibition of DU145 cell proliferation IC50
Description: as §1

HeLa-MaTu-ADR cells = experiment: Proliferation assay, crystal violet (Method 3); format: cell-based; conditions: Homo sapiens, 96 h, 4 days, read-out: Inhibition of HeLa-MaTu-ADR cell proliferation IC50
Description: as §1

NCI-H460 cells = experiment: Proliferation assay, crystal violet (Method 3); format: cell-based; conditions: Homo sapiens, 96 h; NCI-H460, 4 days; read-out: Inhibition of NCI-H460 cell proliferation IC50
Description: as §1

| Compound | IC50 (CDK2/CycE) [nM] | IC50 (HeLa cells) [nM] | IC50 (B16F10 cells) [nM] | IC50 (Caco-2 cells) [nM] | IC50 (DU145 cells) [nM] | IC50 (HeLa-MaTu-ADR cells) [nM] | IC50 (NCI-H460 cells) [nM] |
| --- | --- | --- | --- | --- | --- | --- | --- |
| CS(=N)(=O)Cc1cc2nc(c1)Nc1cc(c(F)cn1)-c1ccc(F)cc1OCCCCCN2 (racemic) [Example 10, (rac)-17,21-difluoro-10-[(S-methylsulfonimidoyl)methyl]-2,3,4,5,6,7-hexahydro-13H-12,8-(azeno)-14,18-(metheno)-1,7,13,15-benzoxatriazacycloicosine] | 102 | 14 | 26 | 13 | 11 | 19 | 18 |
| CN1CCCCOc2cc(F)ccc2-c2cc(ncc2F)Nc2cc(CS(C)(=N)=O)cc1n2 (racemic) [Example 11, (rac)-16,20-difluoro-6-methyl-9-[(S-methylsulfonimidoyl)methyl]-3,4,5,6-tetrahydro-2H-7,11-(azeno)-17,13-(metheno)-1,6,12,14-benzoxatriazacyclononadecine] | 80 | 10 | 12 | 8.9 | 12 | 12 | 12 |
| CC(C)(C)OC(=O)N=S(C)(=O)Cc1cc2cc(c1)OCCCCNc1cc(F)ccc1-c1nc(ncc1F)N2 (racemic) [Example 15, (rac)-tert-butyl[{[16,20-difluoro-2,3,4,5-tetrahydro-1H,12H-13,17-(azeno)-11,7-(metheno)-6,1,12,14-benzoxatriazacyclononadecin-9-yl]methyl}(methyl)oxido-λ^6-sulfanylidene]carbamate] | 3350 | 33 | 83 | 48 | 40 | 63 | 64 |
| CN1CCCCNc2cc(F)ccc2-c2nc(ncc2F)Nc2cc(CS(C)(=N)=O)cc1c2.O=CO (racemic) [Example 17, (rac)-16,20-difluoro-6-methyl-9-[(S-methylsulfonimidoyl)methyl]-1,2,3,4,5,6-hexahydro-12H-17,13-(azeno)-11,7-(metheno)-1,6,12,14-benzotetraazacyclononadecine; salt with formic acid] | 622 | 31 | 38 | 24 | 30 | 30 | 35 |
| CS(=N)(=O)Cc1cc2nc(c1)OCCCCCc1cc(F)ccc1-c1cc(ncc1F)N2 (racemic) [Example 20, (rac)-2,19-difluoro-9-[(S-methylsulfonimidoyl)methyl]-14,15,16,17-tetrahydro-6H,13H-7,11-(azeno)-5,1-(metheno)-12,4,6-benzoxadiazacyclononadecine] | 921 | 408 | 867 | 350 | 347 | 360 | 579 |

Further lines, results first:

| IC50 (CDK2/CycE) [nM] | IC50 (HeLa cells) [nM] | IC50 (B16F10 cells) [nM] | IC50 (Caco-2 cells) [nM] | IC50 (DU145 cells) [nM] | IC50 (HeLa-MaTu-ADR cells) [nM] | IC50 (NCI-H460 cells) [nM] | Compound |
| --- | --- | --- | --- | --- | --- | --- | --- |
| 227 | 10 | 18 | 12 | 12 | 13 | 20 | CS(=N)(=O)Cc1cc2cc(c1)OCCCCNc1cc(F)ccc1-c1nc(ncc1F)N2 (racemic) [Example 16, (rac)-16,20-difluoro-9-[(S-methylsulfonimidoyl)methyl]-2,3,4,5-tetrahydro-1H-17,13-(azeno)-7,11-(metheno)-6,1,12,14-benzoxatriazacyclononadecine] |
| 1410 | 1000 | 1550 | 944 | 942 | 888 | 1150 | C[S+]([O-])Cc1cc2nc(c1)OCCCCCc1cc(F)ccc1-c1cc(ncc1F)N2 (racemic) [Example 19, (rac)-2,19-difluoro-9-[(methylsulfinyl)methyl]-14,15,16,17-tetrahydro-6H,13H-7,11-(azeno)-5,1-(metheno)-12,4,6-benzoxadiazacyclononadecine] |
